Tests used:
[1] = test system: Raji, human Burkitts lymphoma cells; experiment: Cell-MTS proliferation assay, Raji; assay type: cell-based; conditions: 168 hr
Experimental: (§1) The Cell-MTS assay is a 7-day plate-based colorimetric assay which quantifies the amount of newly generated NADH in the presence or absence of test compound. The NADH level is used for the quantification of cancer cell proliferation.
(§2) Established cancer cell lines with a variety of driving mutations were obtained from American Type Culture Collection (ATCC) and routinely passaged according to ATCC protocols. For routine assay, these cells were seeded at densities which enabled ˜90% confluence after 7 days of culture. Raji, human Burkitts lymphoma cells, (cMYC) were seeded at 15,000 cells per 96-well. HL-60, human proleukemia cells, (NRAS, p16, p53, c-Myc amplified) were seeded at 5,000 cells per 96-well. NCI-H460, human non-small cell lung cancer cells, (KRAS, PIK3CA, STLK11, p16) were seeded at 3,000 cells per 96-well. 24 hr after plating, cells received an 11-point dilution of test compound with final concentration ranges from 100 μM to 2.0 nM. […] At the end of this incubation period, 80 μL of media is removed and 20 μL of CellTiter 96® AQueous Non-Radioactive Cell Proliferation Assay soln (Promega) was added. The cells were incubated until the OD490 was >0.6. IC50 values were calculated using the IDBS XLfit software package and include background subtracted OD490 values and normalization to DMSO controls. Cellular proliferation IC50 values were uploaded and archived using the Chem Biography Platform.

[2] = test system: HL-60, human proleukemia cells; experiment: Cell-MTS proliferation assay, HL-60; assay type: cell-based; conditions: Cell-MTS, 168 hr, class symbols A/B/C
Experimental: as §1, §2

BRD4(BD1) = BRD4(BD1) (Homo sapiens (Human), UniProt O60885); experiment: In vitro enzyme inhibition assay (BRD4 AlphaScreen); assay type: binding
How it was run: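 His-tagged BRD4 tested by AlphaScreen for binding of biotinylated H4K5/8/12/16-tetraacetyl peptide. After 20 min at room temperature, streptavidin donor and nickel chelate acceptor beads added (5 μg/mL final each). IC50 determined.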

[3] = Homo sapiens, Raji, Cell-MTS, class symbols A/B/C
[4] = Homo sapiens, Cell-MTS proliferation, Raji cells
[5] = in vitro enzyme inhibition assay

Structure (SMILES) | IC50 [1, 3] [µM] | IC50 ([2]; Homo sapiens, HL-60) [µM] | IC50 (BRD4(BD1); class symbols A/B/C) [µM] | IC50 ([1]; Cell-MTS, class symbols A/B/C) [µM] | IC50 [2] [µM] | IC50 [1, 4] [µM] | IC50 (BRD4(BD1); [5]) [µM] | IC50 ([1]; Homo sapiens, Raji, Cell-MTS proliferation) [µM]
Cn1cc(-c2cc(F)cc(NS(C)(=O)=O)c2)c2ccccc2c1=O [Example 36, N-[3-fluoro-5-(2-methyl-1-oxoisoquinolin-4-yl)phenyl] methanesulfonamide] | 0.5 to 5 | 0.5 to 5 | 0.5 to 5 | – | – | – | – | –
Cn1cc(-c2cccc(S(=O)(=O)NCCO)c2)c2ccccc2c1=O [Example 22, N-(2-hydroxyethyl)-3-(2-methyl-1-oxoisoquinolin-4-yl)benzenesulfonamide] | 0.5 to 5 | 0.5 to 5 | 0.5 to 5 | – | – | – | – | –
CCNS(=O)(=O)c1cccc(-c2cn(C)c(=O)c3cc(F)ccc23)c1 [Example 59, N-ethyl-3-(7-fluoro-2-methyl-1-oxoisoquinolin-4-yl) benzenesulfonamide] | – | – | 0.5 to 5 | 0.5 to 5 | 0.5 to 5 | – | – | –
Cn1cc(-c2ccc(F)c(NS(C)(=O)=O)c2)c2ccccc2c1=O [Example 37, N-[2-fluoro-5-(2-methyl-1-oxoisoquinolin-4-yl)phenyl] methanesulfonamide] | 0.5 to 5 | 0.5 to 5 | < 0.5 | – | – | – | – | –
CCNS(=O)(=O)c1cccc(-c2cn(C)c(=O)c3ccc(F)cc23)c1 [Example 49, N-ethyl-3-(6-fluoro-2-methyl-1-oxoisoquinolin-4-yl) benzenesulfonamide] | – | – | – | 0.5 to 5 | 0.5 to 5 | – | – | –
Cc1ccc(-c2cn(C)c(=O)c3ccccc23)cc1NS(C)(=O)=O [Example 17, N-[2-methyl-5-(2-methyl-1-oxoisoquinolin-4-yl)phenyl] methanesulfonamide] | 0.5 to 5 | < 0.5 | < 0.5 | – | – | – | – | –
Cn1cc(-c2cccc(S(N)(=O)=O)c2)c2ccc(F)cc2c1=O [Example 61, 3-(7-fluoro-2-methhyl-1-oxoisoquinolin-4-yl) benzenesulfonamide] | 0.5 to 5 | 0.5 to 5 | – | – | – | – | – | –
Cn1cc(-c2cc(NS(C)(=O)=O)ccc2F)c2ccccc2c1=O [Example 34, N-[4-fluoro-3-(2-methyl-1-oxoisoquinolin-4-yl)phenyl] methanesulfonamide] | < 0.5 | < 0.5 | < 0.5 | – | – | – | – | –
COc1ccc(-c2cn(C)c(=O)c3ccccc23)cc1NS(C)(=O)=O [Example 30, N-[2-methoxy-5-(2-methyl-1-oxoisoquinolin-4-yl)phenyl]methanesulfonamide] | 0.5 to 5 | < 0.5 | < 0.5 | – | – | – | – | –
CCS(=O)(=O)Nc1cccc(-c2cn(C)c(=O)c3cc(F)ccc23)c1 [Example 62, N-[3-(7-fluoro-2-methyl-1-oxoisoquinolin-4-yl)phenyl]ethanesulfonamide] | 0.5 to 5 | < 0.5 | < 0.5 | – | – | – | – | –
Cn1cc(-c2cccc(NS(C)(=O)=O)c2)ccc1=O [Example 94, N-[3-(1-methyl-6-oxopyridin-3-yl)phenyl]methanesulfonamide] | < 0.5 | > 5 | 0.5 to 5 | – | – | – | – | –
Cn1cc(-c2ccc3c(=O)n(C)cc(-c4cc(NS(C)(=O)=O)c(F)cc4F)c3c2)cn1 [Example 43, N-[2,4-difluoro-5-[2-methyl-6-(1-methylpyrazol-4-yl)-1-oxoisoquinolin-4-yl]phenyl]methane-sulfonamide] | < 0.5 | < 0.5 | < 0.5 | – | – | – | – | –
COc1ccc(-c2cn(C)c(=O)c3ccccc23)cc1S(=O)(=O)NCc1ccccc1 [Example 15, N-benzyl-2-methoxy-5-(2-methyl-1-oxoisoquinolin-4-yl)benzenesulfonamide] | < 0.5 | 0.5 to 5 | 0.5 to 5 | – | – | – | – | –
Cn1cc(-c2cc(S(C)(=O)=O)ccc2OCC2CC2)c2cc(F)ccc2c1=O [Example 90, 4-[2-(cyclopropylmethoxy)-5-methylsulfonylphenyl]-6-fluoro-2-methylisoquinolin-1-one] | < 0.5 | < 0.5 | < 0.5 | – | – | – | – | –
Cn1cc(-c2cccc(NS(C)(=O)=O)c2)c2ccncc2c1=O [Example 51, N-[3-(2-methyl-1-oxo-2,7-naphthyridin-4-yl)phenyl]methanesulfonamide] | > 5 | 0.5 to 5 | 0.5 to 5 | – | – | – | – | –
COc1ccc(-c2cn(C)c(=O)c3ccccc23)cc1C(=O)NCc1ccccc1 [Example 18, N-benzyl-2-methoxy-5-(2-methyl-1-oxoisoquinolin-4-yl)benzamide] | 0.5 to 5 | 0.5 to 5 | 0.5 to 5 | – | – | – | – | –

Structure (SMILES) | IC50 [1, 3] [µM] | IC50 ([2]; Homo sapiens, HL-60) [µM] | IC50 (BRD4(BD1); class symbols A/B/C) [µM] | IC50 ([1]; Cell-MTS, class symbols A/B/C) [µM] | IC50 [2] [µM] | IC50 [1, 4] [µM] | IC50 (BRD4(BD1); [5]) [µM] | IC50 ([1]; Homo sapiens, Raji, Cell-MTS proliferation) [µM]
CCCCc1cnc(NS(=O)(=O)CC)nc1-c1cc(C)c(=O)n(C(C)C)c1 [Example 511, N-[5-butyl-4-(5-methyl-6-oxo-1-propan-2-ylpyridin-3-yl)pyrimidin-2-yl] ethanesulfonamide] | – | – | – | – | – | < 0.5 | < 0.5 | –
Cn1cc(-c2cc(NS(C)(=O)=O)cc(C(F)(F)F)c2)c2ccccc2c1=O [Example 40, N-[3-(2-methyl-1-oxoisoquinolin-4-yl)-5-(trifluoromethyl)phenyl] methanesulfonamide] | 0.5 to 5 | 0.5 to 5 | 0.5 to 5 | – | – | – | – | –
CCNS(=O)(=O)c1cccc(-c2cn(C)c(=O)c3cnccc23)c1 [Example 53, N-ethyl-3-(2-methyl-1-oxo-2,7-naphthyridin-4-yl) benzenesulfonamide] | – | – | 0.5 to 5 | > 5 | > 5 | – | – | –
Cn1cc(-c2cccc(S(=O)(=O)N3CCCC3)c2)c2ccccc2c1=O [Example 7, 2-methyl-4-(3-pyrrolidin-1-yl-sulfonylphenyl)isoquinolin-1-one] | < 0.5 | 0.5 to 5 | 0.5 to 5 | – | – | – | – | –
CCS(=O)(=O)c1ccc(O[C@H]2CC[C@H](O)CC2)c(-c2cn(C)c(=O)c3ccc(F)cc23)c1 [Example 188, 4-[5-ethylsulfonyl-2-(trans-4-hydroxycyclohexyl)oxyphenyl]-6-fluoro-2-methylisoquinolin-1-one] | – | – | – | – | – | – | < 0.5 | < 0.5
Cn1cc(-c2ccc3c(=O)n(C)cc(-c4cc(NS(C)(=O)=O)ccc4F)c3c2)cn1 [Example 41, N-[4-fluoro-3-[2-methyl-6-(1-methylpyrazol-4-yl)-1-oxoisoquinolin-4-yl]phenyl]methanesulfonamide] | < 0.5 | < 0.5 | < 0.5 | – | – | – | – | –
Cn1cc(-c2cccc(NS(C)(=O)=O)c2)c2ccc(F)cc2c1=O [Example 58, N-[3-(7-fluoro-2-methyl-1-oxoisoquinolin-4-yl)phenyl]methanesulfonamide] | 0.5 to 5 | < 0.5 | < 0.5 | – | – | – | – | –
CN(C(=O)OC(C)(C)C)c1cccc(-c2cn(C)c(=O)c3ccccc23)c1 [Example 31, tert-butyl N-methyl-N-[3-(2-methyl-1-oxoisoquinolin-4-yl)phenyl]carbamate] | 0.5 to 5 | 0.5 to 5 | 0.5 to 5 | – | – | – | – | –
Cc1ccc(NS(C)(=O)=O)cc1-c1cn(C)c(=O)c2ccccc12 [Example 39, N-[4-methyl-3-(2-methyl-1-oxoisoquinolin-4-yl)phenyl]methanesulfonamide] | 0.5 to 5 | < 0.5 | < 0.5 | – | – | – | – | –
CCS(=O)(=O)Nc1cccc(-c2cn(C)c(=O)c3cnccc23)c1 [Example 52, N-[3-(2-methyl-1-oxo-2,7-naphthyridin-4-yl)phenyl] ethanesulfonamide] | 0.5 to 5 | 0.5 to 5 | 0.5 to 5 | – | – | – | – | –
Cn1cc(-c2cccc(S(N)(=O)=O)c2)c2cc(F)ccc2c1=O [Example 48, 3-(6-fluoro-2-methyl-1-oxoisoquinolin-4-yl) benzenesulfonamide] | – | – | 0.5 to 5 | 0.5 to 5 | 0.5 to 5 | – | – | –
Cn1cc(-c2ccc3c(c2)NC(=O)C3)c2ccccc2c1=O [Example 20, 2-methyl-4-(2-oxo-1,3-dihydroindol-6-yl) isoquinolin-1-one] | < 0.5 | < 0.5 | > 5 | – | – | – | – | –
Cn1cc(-c2cc(S(C)(=O)=O)ccc2OCC2CC2)c2c(c1=O)CCC2 [Example 504, 4-[2-(cyclopropylmethoxy)-5-methylsulfonylphenyl]-2-methyl-6,7-dihydro-5H-cyclopenta[c]pyridin-1-one] | – | – | – | – | – | < 0.5 | < 0.5 | –
Cn1cc(-c2cccc(NS(C)(=O)=O)c2)c2cc(F)ccc2c1=O [Example 47, N-[3-(6-fluoro-2-methyl-1-oxoisoquinolin-4-yl)phenyl]methanesulfonamide] | < 0.5 | < 0.5 | < 0.5 | – | – | – | – | –
Cn1cc(-c2cc(NS(C)(=O)=O)c(F)cc2F)c2ccccc2c1=O [Example 35, N-[2,4-difluoro-5-(2-methyl-1-oxoisoquinolin-4-yl)phenyl]methanesulfonamide] | 0.5 to 5 | 0.5 to 5 | 0.5 to 5 | – | – | – | – | –
Cn1cc(-c2cc(NS(C)(=O)=O)ccc2Cl)c2ccccc2c1=O [Example 38, N-[4-chloro-3-(2-methyl-1-oxoisoquinolin-4-yl)phenyl] methanesulfonamide] | 0.5 to 5 | < 0.5 | < 0.5 | – | – | – | – | –
